From patent publication US6737433B1, “1-N-phenylamino-1H-imidazole derivatives as aromatase inhibitors and pharmaceutical compositions containing them” (Laboratoire Theramex, priority 2002, dated 2004)
Counter-ions that a name gives are not always drawn.

Columns and labels:
human aromatase = biological target: T1, human aromatase (Homo sapiens, UniProt P11511); experiment: Inhibition of human aromatase in vitro in JEG-3 cells (3H-water release from 1β-3H-androstenedione); type: cell-based; conditions: 10 nM 1β-3H-androstenedione, 2 h incubation
T1 construct: The JEG-3 cell line, derived from a human placental choriocarcinoma, is intrinsically very rich in human aromatase; endogenous in cells; host or cells: JEG-3 (human placental choriocarcinoma)
T1 sequence (P11511 1-503): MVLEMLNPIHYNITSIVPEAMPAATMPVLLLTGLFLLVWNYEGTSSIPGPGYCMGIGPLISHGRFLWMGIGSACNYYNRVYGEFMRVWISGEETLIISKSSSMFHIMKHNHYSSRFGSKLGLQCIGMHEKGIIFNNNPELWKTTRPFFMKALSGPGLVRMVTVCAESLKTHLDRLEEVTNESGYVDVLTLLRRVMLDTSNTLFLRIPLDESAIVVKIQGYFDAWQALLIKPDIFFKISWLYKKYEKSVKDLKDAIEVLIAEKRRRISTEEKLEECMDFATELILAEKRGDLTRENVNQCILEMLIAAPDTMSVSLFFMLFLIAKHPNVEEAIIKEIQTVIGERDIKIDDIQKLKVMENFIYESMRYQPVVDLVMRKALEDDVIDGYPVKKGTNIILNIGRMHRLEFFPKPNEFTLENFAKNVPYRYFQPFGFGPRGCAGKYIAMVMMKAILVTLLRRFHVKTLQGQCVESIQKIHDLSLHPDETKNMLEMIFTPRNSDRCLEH
Procedure: Stocks of JEG-3 cells are grown up to 80% of confluence as monolayers in plastic flasks in minimum Eagle's medium with 1 g/l glucose and 10% decomplemented fetal calf serum at pH 7.4 and 37° C., under a 5% CO2 atmosphere. Then, 24 hours before aromatase activity measurement, JEG-3 cells are distributed for seeding in 96-well microplates (60,000 to 100,000 viable cells in 100 μl of culture medium per well); 24 hours later, microplates are rinsed and fresh medium containing the radioactive aromatase substrate (1β-^3H-androstenedione, 10 nM) is added together with test compounds dissolved with 1% dimethylsulfoxyde in a test concentration range between 10^−11 and 10^−4 M in a total volume of 150 μl.
Two hours after the beginning of the incubation, 100 μl of the supernatants are transferred to homologous new 96-well microplates. A solution of dextran-coated charcoal (1%) is added in each well (100 μl/well); after standing for 10 minutes on ice, microplates are centrifuged (1500 g) for 10 more minutes at 4° C. All steroids, including the radioactive substrate and the newly biosynthesized estrogens, are trapped complexed by the charcoal; only the ^3H-water specifically formed during aromatisation of 1β-^3H-androstenedione, involving a specific oxidative step removing the 1β-^3H, remains in the supernatant at this stage.
Finally, aromatase activity is expressed in fmoles/μg DNA in 2 hours and aromatase inhibition in percentage of control incubation without inhibitors.

Row | Structure (SMILES) | melting point [°C] | IC50 (human aromatase) [nM]
1 | N#Cc1ccc(N(Cc2ccc(F)cc2)n2ccnc2)cc1 (as salt: hydrochloride) (hydrate or solvate) [Example 14, 4-[N-(1H-imidazol-1-yl)-N-(4-fluorophenylmethyl)amino]benzonitrile] | 176 to 178 | 
2 | N#Cc1ccc(N(c2ccc(C#N)cc2)n2ccnc2)cc1 [Example 13, 4,4′-[N-(1H-imidazol-1-yl)amino]bis-benzonitrile] |  | 0.44 ± 0.04
3 | N#Cc1ccc(N(Cc2cc(F)cc(F)c2)n2ccnc2)cc1 [Example 19, 4-[N-(1H-imidazol-1-yl)-N-(3,5-difluorophenylmethyl)amino]benzonitrile] | 170 | 0.4 ± 0.06
4 | COc1ccc(CN(c2ccc(C#N)cc2)n2ccnc2)cc1 (as salt: hydrochloride) [Example 8, 4-[N-(1H-imidazol-1-yl)-N-(4-methoxyphenylmethyl)amino]benzonitrile] | 178 | 
5 | N#Cc1ccc(CN(c2ccc(C#N)cc2)n2ccnc2)cc1 (as salt: hydrochloride) [Example 11, 4-[N-(1H-imidazol-1-yl)-N-(4-cyanophenylmethyl)amino]benzonitrile] | 195 | 
6 | COc1ccc(CN(c2ccc(C#N)cc2)n2ccnc2)cc1OC (as salt: hydrochloride) [Example 12, 4-[N-(1H-imidazol-1-yl)-N-(3,4-dimethoxyphenylmethyl)amino]benzonitrile] | 167 | 
7 | COc1ccc(CN(c2ccc(C#N)cc2)n2ccnc2)cc1F [Example 9, 4-[N-(1H-imidazol-1-yl)-N-(3-fluoro-4-methoxyphenylmethyl)amino]benzonitrile] |  | 0.16 ± 0.06
8 | CS(=O)(=O)c1ccc(CN(c2ccc(C#N)cc2)n2ccnc2)cc1 [Example 16, 4-[N-(1H-imidazol-1-yl)-N-(4-methylsulfonylphenylmethyl)amino]benzonitrile] |  | 0.35 ± 0.07
9 | N#Cc1ccc(N(Cc2ccc(Cl)cc2)n2ccnc2)cc1 (as salt: hydrochloride) [Example 7, 4-[N-(1H-imidazol-1-yl)-N-(4-chlorophenylmethyl)amino]benzonitrile] | 190 | 
10 | COc1ccc(CN(c2ccc(C#N)cc2)n2ccnc2)cc1F (as salt: hydrochloride) [Example 9, 4-[N-(1H-imidazol-1-yl)-N-(3-fluoro-4-methoxyphenylmethyl)amino]benzonitrile] | 190 | 
11 | COc1ccc(CN(c2ccc(C#N)cc2)n2ccnc2)cc1 [Example 8, 4-[N-(1H-imidazol-1-yl)-N-(4-methoxyphenylmethyl)amino]benzonitrile] |  | 0.14 ± 0.05
12 | N#Cc1ccc(N(c2ccc(C#N)cc2)n2ccnc2)cc1 (as salt: hydrochloride) [Example 13, 4,4′-[N-(1H-imidazol-1-yl)amino]bis-benzonitrile] | 199 | 
13 | Cc1ccc(CN(c2ccc(C#N)cc2)n2ccnc2)cc1 [Example 10, 4-[N-(1H-imidazol-1-yl)-N-(4-methylphenylmethyl)amino]benzonitrile] | 156 | 0.14 ± 0.03
14 | CSc1ccc(CN(c2ccc(C#N)cc2)n2ccnc2)cc1 [Example 15, 4-[N-(1H-imidazol-1-yl)-N-(4-methylthiophenylmethyl)amino]benzonitrile] | 128 | 0.21 ± 0.05
15 | N#Cc1ccc(N(Cc2ccc(F)cc2F)n2ccnc2)cc1 [Example 18, 4-[N-(1H-imidazol-1-yl)-N-(2,4-difluorophenylmethyl)amino]benzonitrile] | 149 | 0.14 ± 0.01
16 | N#Cc1ccc(N(c2ccc(C(F)(F)F)cc2)n2ccnc2)cc1 [Example 5, 4-[N-(1H-imidazol-1-yl)-N-(4-trifluoromethylphenyl)amino]benzonitrile] |  | 0.54 ± 0.26

More lines, now with the values ahead:

Row | melting point [°C] | IC50 (human aromatase) [nM] | Structure (SMILES)
17 | 113 | 1.57 ± 0.74 | N#Cc1ccc(N(c2ccc(F)cc2)n2ccnc2)cc1 [Example 28, 4-[N-(1H-imidazol-1-yl)-N-(4-fluorophenyl)amino]benzonitrile]
18 | 178 |  | COC(=O)c1ccc(CN(c2ccc(C#N)cc2)n2ccnc2)cc1 [Example 27, Methyl 4-[N-(4-cyanophenyl)-N-(1H-imidazol-1-yl)aminomethyl]benzoate]
19 | 226 | 0.48 ± 0.13 | N#Cc1ccc(CN(c2ccc(C#N)cc2C(F)(F)F)n2ccnc2)cc1 [Example 23, 4-[N-(1H-imidazol-1-yl)-N-(4-cyanophenylmethyl)amino]-3-trifluoromethylbenzonitrile]
20 | 107 | 0.18 ± 0.09 | N#Cc1ccc(N(Cc2ccccc2)n2ccnc2)cc1 [Example 24, 4-[N-(1H-imidazol-1-yl)-N-(phenylmethyl)amino]benzonitrile]
21 | 122 | 0.19 ± 0.05 | N#Cc1ccc(N(Cc2cccc(C(F)(F)F)c2)n2ccnc2)cc1 [Example 29, 4-[N-(1H-imidazol-1-yl)-N-(3-trifluoromethylphenylmethyl)amino]benzonitrile]
22 | 150 |  | Cc1ncn(N(Cc2ccc(Br)cc2)c2ccc(C#N)cc2)c1C [Example 32, 4-[N-(4,5-dimethyl-1H-imidazol-1-yl)-N-(4-bromophenylmethyl)amino]benzonitrile]
23 | 184 | 0.2 ± 0.05 | Cn1nnc2ccc(N(Cc3ccc(C#N)cc3)n3ccnc3)cc21 [Example 22, 4-[N-(1-methylbenzotriazol-6-yl)-N-(1H-imidazol-1-yl)aminomethyl]benzonitrile]
24 | 138 | 1.12 ± 0.55 | N#Cc1ccc(CN(c2ccc(Br)cc2)n2ccnc2)cc1 [Example 21, 4-[N-(1H-imidazol-1-yl)-N-(4-bromophenyl)aminomethyl]benzonitrile]
25 | 112 | 0.13 ± 0.05 | N#Cc1ccc(N(Cc2cccc(F)c2)n2ccnc2)cc1 [Example 26, 4-[N-(1H-imidazol-1-yl)-N-(3-fluorophenylmethyl)amino]benzonitrile]
26 |  | 0.22 ± 0.05 | N#Cc1ccc(N(Cc2ccc(Br)cc2)n2ccnc2)cc1 [Example 20, 4-[N-(1H-imidazol-1-yl)-N-(4-bromophenylmethyl)amino]benzonitrile]
27 | 166 | 0.66 ± 0.14 | N#Cc1ccc(N(c2ccc(C#N)cc2C(F)(F)F)n2ccnc2)cc1 [Example 25, 4-[N-(1H-imidazol-1-yl)-N-(4-cyanophenyl)amino]-3-trifluoromethylbenzonitrile]
28 | 152 | 1.16 ± 0.55 | Cc1cn(N(Cc2ccc(Br)cc2)c2ccc(C#N)cc2)cn1 [Example 30, 4-[N-(4-methyl-1H-imidazol-1-yl)-N-(4-bromophenylmethyl)amino]benzonitrile]
29 | 152 | 0.58 ± 0.18 | Cc1cncn1N(Cc1ccc(Br)cc1)c1ccc(C#N)cc1 [Example 31, 4-[N-(5-methyl-1H-imidazol-1-yl)-N-(4-bromophenylmethyl)amino]benzonitrile]
30 | 125 |  | N#Cc1ccc(N(Cc2ccc(Br)cc2)n2ccnc2)cc1 (as salt: hydrochloride) [Example 20, 4-[N-(1H-imidazol-1-yl)-N-(4-bromophenylmethyl)amino]benzonitrile]
